Laboratory results as given in patent US11731943B2, “Therapeutic compounds, compositions and methods of use thereof” (priority 2016, dated 2023).
Read-outs that look alike come from different tables or passages of the source.

Experiments:
[1] = molecular target: isolated recombinant JAK2 kinase domain (Homo sapiens (Human), UniProt O60674); assay: JAK2 enzyme assay (Caliper LabChip, Ki); type: biochemical
Procedure, shortened: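 Recombinant human JAK1 or JAK2 kinase domain phosphorylating a 5-carboxyfluorescein-labelled JAK3-derived peptide; 30 min at 22 °C, stopped with EDTA (50 mM final). Phosphorylated product measured as a fraction of total peptide by Caliper LabChip mobility shift.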

[2] = tested on: JAK1-dependent STAT6 phosphorylation downstream of IL-13 stimulation in BEAS-2B human bronchial epithelial cells; assay: JAK1 pathway assay in BEAS-2B cells (IL-13-pSTAT6, MSD); type: cell-based; conditions: BEAS-2B cells, IL-13 stimulation, read-out: IL-13 p-STAT6 BEAS-2B IC50
[3] = molecular target: isolated recombinant JAK1 kinase domain (Homo sapiens (Human), UniProt P23458); assay: JAK1 enzyme assay (Caliper LabChip, Ki); type: biochemical; conditions: read-out: JAK1 Ki
Chain of isolated recombinant JAK1 kinase domain (P23458 875-1153): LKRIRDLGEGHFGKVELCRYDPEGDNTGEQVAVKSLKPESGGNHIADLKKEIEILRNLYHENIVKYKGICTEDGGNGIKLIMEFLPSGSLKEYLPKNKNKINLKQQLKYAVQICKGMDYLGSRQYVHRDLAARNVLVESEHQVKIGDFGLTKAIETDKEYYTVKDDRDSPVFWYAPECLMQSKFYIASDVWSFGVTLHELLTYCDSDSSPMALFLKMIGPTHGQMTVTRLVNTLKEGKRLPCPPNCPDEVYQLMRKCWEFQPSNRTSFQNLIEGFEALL
Procedure, shortened: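 Recombinant human JAK1 kinase domain phosphorylating an N-terminally 5-carboxyfluorescein-labelled JAK3-derived peptide, 30 min at 22 °C, stopped with EDTA (50 mM final). Phosphorylated fraction of total peptide read by Caliper LabChip mobility shift; Ki from Morrison tight-binding fit corrected for ATP competition (Ki=Ki,app/(1+[ATP]/Km,app)).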

Chain of isolated recombinant JAK2 kinase domain (O60674 849-1124): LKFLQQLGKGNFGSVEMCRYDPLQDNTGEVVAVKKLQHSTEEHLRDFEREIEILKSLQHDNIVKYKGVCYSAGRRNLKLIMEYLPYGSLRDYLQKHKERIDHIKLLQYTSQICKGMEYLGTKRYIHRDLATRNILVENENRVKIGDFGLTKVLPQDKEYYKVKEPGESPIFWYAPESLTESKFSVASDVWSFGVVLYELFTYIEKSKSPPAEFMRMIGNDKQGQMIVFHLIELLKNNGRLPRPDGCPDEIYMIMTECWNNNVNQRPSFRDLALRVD

| Structure (SMILES) | Ki [1] [nM] | IC50 [2] [nM] | Ki [3] [nM] | IC50 ([2]; Homo sapiens, BEAS-2B) [nM] |
| --- | --- | --- | --- | --- |
| N#CCC1(n2cc(C(N)=O)c(NC(=O)C3CC3C#N)n2)CCN(Cc2ccc(-c3ccccc3)cc2F)CC1F (stereo not drawn) [Example 219, 3-[(2-cyanocyclopropanecarbonyl)amino]-1-[4-(cyanomethyl)-3-fluoro-1-[(2-fluoro-4-phenyl-phenyl)methyl]-4-piperidyl]pyrazole-4-carboxamide] | 3.6 | 68 | 1.7 |  |
| COC(=O)Nc1nn(C2(CC#N)CCN(Cc3ccc(-c4ccco4)cc3)CC2F)cc1C(N)=O (stereo not drawn) [Example 220, methyl N-[4-carbamoyl-1-[4-(cyanomethyl)-3-fluoro-1-[[4-(2-furyl)phenyl]methyl]-4-piperidyl]pyrazol-3-yl]carbamate] | 0.44 |  | 0.27 | 15 |
| CCc1ccc(-c2ccc(CN3CCC(CC#N)(n4cc(C(N)=O)c(NC(=O)C5CC5C#N)n4)C(F)C3)cc2O)cc1 (stereo not drawn) [Example 221, 3-[(2-cyanocyclopropanecarbonyl)amino]-1-[4-(cyanomethyl)-1-[[4-(4-ethylphenyl)-3-hydroxy-phenyl]methyl]-3-fluoro-4-piperidyl]pyrazole-4-carboxamide] | 1.7 |  | 0.3 | 90 |
| CCc1ccc(-c2ccc(CN3CCC(CC#N)(n4cc(C(N)=O)c(NC(=O)C5CC5C#N)n4)C(F)C3)cc2O)cc1 (stereo not drawn) [Example 222, 3-[(2-cyanocyclopropanecarbonyl)amino]-1-[4-(cyanomethyl)-1-[[4-(4-ethylphenyl)-3-hydroxy-phenyl]methyl]-3-fluoro-4-piperidyl]pyrazole-4-carboxamide] | 0.43 | 52 | 0.18 |  |
| Cc1ccc(-c2ccc(CN3CCC(CC#N)(n4cc(C(N)=O)c(NC(=O)C5CC5)n4)C(F)C3)cc2)o1 (stereo not drawn) [Example 223, 1-[4-(cyanomethyl)-3-fluoro-1-[[4-(5-methyl-2-furyl)phenyl]methyl]-4-piperidyl]-3-(cyclopropanecarbonylamino) pyrazole-4-carboxamide] | 0.34 |  | 0.38 | 12 |
| COC(=O)Nc1nn(C2(CC#N)CCN(Cc3ccc(-c4ccco4)c(O)c3)CC2F)cc1C(N)=O (stereo not drawn) [Example 224, methyl N-[4-carbamoyl-1-[4-(cyanomethyl)-3-fluoro-1-[[4-(2-furyl)-3-hydroxy-phenyl]methyl]-4-piperidyl]pyrazol-3-yl]carbamate] | 0.15 |  | 0.16 | 19 |
| CCOC(=O)Nc1nn(C2(CC#N)CCN(Cc3ccc(-n4nccn4)cc3)CC2F)cc1C(N)=O (stereo not drawn) [Example 225, ethyl N-[4-carbamoyl-1-[4-(cyanomethyl)-3-fluoro-1-[[4-(triazol-2-yl)phenyl]methyl]-4-piperidyl]pyrazol-3-yl]carbamate] | 1.3 |  | 0.62 | 44 |
| COC(=O)Nc1nn(C2(CC#N)CCN(Cc3ccc(-c4ccco4)nc3F)CC2F)cc1C(N)=O (stereo not drawn) [Example 226, methyl N-[4-carbamoyl-1-[4-(cyanomethyl)-3-fluoro-1-[[2-fluoro-6-(2-furyl)-3-pyridyl]methyl]-4-piperidyl]pyrazol-3-yl]carbamate] | 0.56 |  | 0.37 | 49 |
| N#CCC1(n2cc(C(N)=O)c(NC(=O)C3CC3C#N)n2)CCN(Cc2ccc(-c3ccccc3)nc2F)CC1F (stereo not drawn) [Example 227, 3-[(2-cyanocyclopropanecarbonyl)amino]-1-[4-(cyanomethyl)-3-fluoro-1-[(2-fluoro-6-phenyl-3-pyridyl)methyl]-4-piperidyl]pyrazole-4-carboxamide] | 0.63 |  | 0.31 | 54 |
| N#CCC1(n2cc(C(N)=O)c(NC(=O)C3CC3C#N)n2)CCN(CC2CCC(c3ccccc3)CC2)CC1F (stereo not drawn) [Example 228, 3-[(2-cyanocyclopropanecarbonyl)amino]-1-[4-(cyanomethyl)-3-fluoro-1-[(4-phenylcyclohexyl)methyl]-4-piperidyl]pyrazole-4-carboxamide] | 7.7 | 77 | 1.5 |  |
| N#CCC1(n2cc(C(N)=O)c(NC(=O)C3CC3)n2)CCN(Cc2ccc(C3=CCCCC3)cc2)CC1F (stereo not drawn) [Example 229, 1-[4-(cyanomethyl)-1-[[4-(cyclohexen-1-yl)phenyl]methyl]-3-fluoro-4-piperidyl]-3-(cyclopropanecarbonylamino) pyrazole-4-carboxamide] | 0.77 |  | 0.48 | 25 |
| N#CCC1(n2cc(C(N)=O)c(NC(=O)C3CC3C#N)n2)CCN(CC2CCC(c3ccccc3)CC2)CC1F (stereo not drawn) [Example 230, 3-[(2-cyanocyclopropanecarbonyl)amino]-1-[4-(cyanomethyl)-3-fluoro-1-[(4-phenylcyclohexyl)methyl]-4-piperidyl]pyrazole-4-carboxamide] | 1.8 | 60 | 0.51 |  |
| N#CCC1(n2cc(C(N)=O)c(NC(=O)C3CC3C#N)n2)CCN(CC2CCC(c3ccccc3)CC2)CC1F (stereo not drawn) [Example 231, 3-[(2-cyanocyclopropanecarbonyl)amino]-1-[4-(cyanomethyl)-3-fluoro-1-[(4-phenylcyclohexyl)methyl]-4-piperidyl]pyrazole-4-carboxamide] | 8.3 | 19 | 0.36 |  |
| CCc1ccc(-c2ccc(CN3CCC(CC#N)(n4cc(C(N)=O)c(NC(=O)OC)n4)C(F)C3)cc2)o1 (stereo not drawn) [Example 232, methyl N-[4-carbamoyl-1-[4-(cyanomethyl)-1-[[4-(5-ethyl-2-furyl)phenyl]methyl]-3-fluoro-4-piperidyl]pyrazol-3-yl]carbamate] | 0.89 |  | 0.32 | 20 |
| N#CCC1(n2cc(C(N)=O)c(NC(=O)C3CC3)n2)CCN(CC2CCC(c3ccccc3)CC2)CC1F (stereo not drawn) [Example 233, 1-[4-(cyanomethyl)-3-fluoro-1-[(4-phenylcyclohexyl)methyl]-4-piperidyl]-3-(cyclopropanecarbonylamino) pyrazole-4-carboxamide] | 0.45 |  | 0.3 | 39 |
| N#CCC1(n2cc(C(N)=O)c(NC(=O)C3CC3)n2)CCN(CC2CCC(c3ccccc3)CC2)CC1F (stereo not drawn) [Example 234, 1-[4-(cyanomethyl)-3-fluoro-1-[(4-phenylcyclohexyl)methyl]-4-piperidyl]-3-(cyclopropanecarbonylamino) pyrazole-4-carboxamide] | 1 | 31 | 0.27 |  |
| COC(=O)Nc1nn(C2(CC#N)CCN(CC3CCC(c4ccccc4)CC3)CC2F)cc1C(N)=O (stereo not drawn) [Example 235, methyl N-[4-carbamoyl-1-[4-(cyanomethyl)-3-fluoro-1-[(4-phenylcyclohexyl)methyl]-4-piperidyl]pyrazol-3-yl]carbamate] | 0.67 |  | 0.32 | 26 |
| COC(=O)Nc1nn(C2(CC#N)CCN(CC3CCC(c4ccccc4)CC3)CC2F)cc1C(N)=O (stereo not drawn) [Example 236, methyl N-[4-carbamoyl-1-[4-(cyanomethyl)-3-fluoro-1-[(4-phenylcyclohexyl)methyl]-4-piperidyl]pyrazol-3-yl]carbamate] | 1.4 | 19 | 0.21 |  |
| COC(=O)Nc1nn(C2(CC#N)CCN(Cc3cc(O)c(-c4ccoc4)cc3F)CC2F)cc1C(N)=O (stereo not drawn) [Example 237, methyl N-[4-carbamoyl-1-[4-(cyanomethyl)-3-fluoro-1-[[2-fluoro-4-(3-furyl)-5-hydroxy-phenyl]methyl]-4-piperidyl]pyrazol-3-yl]carbamate] | 0.3 |  | 0.22 | 27 |
| COC(=O)Nc1nn(C2(CC#N)CCN(Cc3cc(O)c(-c4ccco4)cc3F)CC2F)cc1C(N)=O (stereo not drawn) [Example 238, methyl N-[4-carbamoyl-1-[4-(cyanomethyl)-3-fluoro-1-[[2-fluoro-4-(2-furyl)-5-hydroxy-phenyl]methyl]-4-piperidyl]pyrazol-3-yl]carbamate] | 0.35 |  | 0.29 | 18 |
| COC(=O)Nc1nn(C2(CC#N)CCN(Cc3ccc(-c4ccoc4)nc3F)CC2F)cc1C(N)=O (stereo not drawn) [Example 239, methyl N-[4-carbamoyl-1-[4-(cyanomethyl)-3-fluoro-1-[[2-fluoro-6-(3-furyl)-3-pyridyl]methyl]-4-piperidyl]pyrazol-3-yl]carbamate] | 0.89 |  | 0.51 | 67 |
| N#CCC1(n2cc(C(N)=O)c(NC(=O)C3CC3C#N)n2)CCN(Cc2cc(O)c(-c3ccccc3)cc2F)CC1F (stereo not drawn) [Example 240, 3-[(2-cyanocyclopropanecarbonyl)amino]-1-[4-(cyanomethyl)-3-fluoro-1-[(2-fluoro-5-hydroxy-4-phenyl-phenyl)methyl]-4-piperidyl]pyrazole-4-carboxamide] | 0.29 |  | 0.19 | 71 |
| CCn1ccc(-c2ccc(CN3CCC(CC#N)(n4cc(C(N)=O)c(NC(=O)OC)n4)C(F)C3)c(F)c2)n1 (stereo not drawn) [Example 241, methyl N-[4-carbamoyl-1-[4-(cyanomethyl)-1-[[4-(1-ethylpyrazol-3-yl)-2-fluoro-phenyl]methyl]-3-fluoro-4-piperidyl]pyrazol-3-yl]carbamate] | 0.51 |  | 0.54 | 29 |
| CCn1ccc(-c2ccc(CN3CCC(CC#N)(n4cc(C(N)=O)c(NC(=O)C5CC5)n4)C(F)C3)c(F)c2)n1 (stereo not drawn) [Example 242, 1-[4-(cyanomethyl)-1-[[4-(1-ethylpyrazol-3-yl)-2-fluoro-phenyl]methyl]-3-fluoro-4-piperidyl]-3-(cyclopropanecarbonylamino) pyrazole-4-carboxamide] | 0.51 |  | 0.6 | 55 |
